# Assay results from paper PMC6073756, “Allicin Bioavailability and Bioequivalence from Garlic Supplements and Garlic Foods” (Nutrients, 2018).
# Assays:
# [1] = Allicin bioavailability or bioequivalence bioassay: 32-h breath allyl methyl sulfide (AMS) concentration curve after consumption; format: in vivo, human; details: two tests, same person
# [2] = set-up: method as in PMID 25681129; details: cited from earlier work
# [3] = set-up: method as in doi:10.1055/s-2006-959976; details: added to whole blood; cited from earlier work
# [4] = cited from earlier work
smiles,measurement,setting,value
C=CC[S+]([O-])C[C@H](N)C(=O)O (mixture of isomers) [L(±)-alliin],"Differences in Tmax, RF2, or RRF2 versus natural L(+)-alliin",[1],No significant differences
"C=CCSCC(N)C(=O)O (stereo not shown) [S-allyl-cysteine, S-allylcysteine]",Administered dose accounted for among the urinary metabolites,[2],13%
same,Dose in urine as SAC plus N-acetyl-SAC,[2],1%
same,Dose in urine as alliin plus N-acetyl-alliin,[2],12%
same,Unknown metabolites,[2],87%
"C=CCS[S+]([O-])CC=C (stereo not shown) [allicin, diallyl thiosulfinate]",Half-life of metabolism to allyl mercaptan,[3],< 1 min
same,Share of the allicin consumed accounted for by breath AMS,[4],at least 90%
